Measurements reported in US20090306012A1, “THERAPEUTIC PROTOCOLS” (priority 2001, published 2009).

System: neutrophils
Assay: Phase I clinical trial of 5-fluorouracil + HA (Hyfive) in metastatic colorectal cancer: toxicity, neutrophil counts
[1] = Patient 2, cycle Day 3, 5FU Cycle 1, HyFive Cycle 2
[2] = Patient 2, cycle Day 7, 5FU Cycle 1, HyFive Cycle 2
[3] = Patient 2, cycle Day 9, 5FU Cycle 1, HyFive Cycle 2
[4] = Patient 2, cycle Day 11, 5FU Cycle 1, HyFive Cycle 2
[5] = Patient 2, cycle Day 14, 5FU Cycle 1, HyFive Cycle 2
[6] = Patient 2, cycle Day 16, 5FU Cycle 1, HyFive Cycle 2
[7] = Patient 2, cycle Day 18, 5FU Cycle 1, HyFive Cycle 2
[8] = Patient 2, cycle Day 21, 5FU Cycle 1, HyFive Cycle 2
[9] = Patient 2, cycle Day 23, 5FU Cycle 1, HyFive Cycle 2
[10] = Patient 2, cycle Day 25, 5FU Cycle 1, HyFive Cycle 2
[11] = Patient 4, cycle Day 4, HyFive Cycle 1, 5FU Cycle 2
[12] = Patient 4, cycle Day 5, HyFive Cycle 1, 5FU Cycle 2
[13] = Patient 4, cycle Day 8, HyFive Cycle 1, 5FU Cycle 2
[14] = Patient 4, cycle Day 10, HyFive Cycle 1, 5FU Cycle 2
[15] = Patient 4, cycle Day 12, HyFive Cycle 1, 5FU Cycle 2
[16] = Patient 4, cycle Day 15, HyFive Cycle 1, 5FU Cycle 2
[17] = Patient 4, cycle Day 17, HyFive Cycle 1, 5FU Cycle 2
[18] = Patient 4, cycle Day 19, HyFive Cycle 1, 5FU Cycle 2
[19] = Patient 4, cycle Day 22, HyFive Cycle 1, 5FU Cycle 2
[20] = Patient 4, cycle Day 24, HyFive Cycle 1, 5FU Cycle 2
[21] = Patient 4, cycle Day 26, HyFive Cycle 1, 5FU Cycle 2
[22] = Patient 5, cycle Day 5, 5FU Cycle 1, HyFive Cycle 2
[23] = Patient 5, cycle Day 10, 5FU Cycle 1, HyFive Cycle 2
[24] = Patient 5, cycle Day 12, 5FU Cycle 1, HyFive Cycle 2
[25] = Patient 5, cycle Day 15, 5FU Cycle 1, HyFive Cycle 2
[26] = Patient 5, cycle Day 17, 5FU Cycle 1, HyFive Cycle 2
[27] = Patient 5, cycle Day 19, 5FU Cycle 1, HyFive Cycle 2
[28] = Patient 5, cycle Day 22, 5FU Cycle 1, HyFive Cycle 2
[29] = Patient 5, cycle Day 24, 5FU Cycle 1, HyFive Cycle 2
[30] = Patient 5, cycle Day 26, 5FU Cycle 1, HyFive Cycle 2
[31] = Patient 6, cycle Day 3, 5FU Cycle 1, HyFive Cycle 2
[32] = Patient 6, cycle Day 8, 5FU Cycle 1, HyFive Cycle 2
[33] = Patient 6, cycle Day 10, 5FU Cycle 1, HyFive Cycle 2
[34] = Patient 6, cycle Day 12, 5FU Cycle 1, HyFive Cycle 2
[35] = Patient 6, cycle Day 15, 5FU Cycle 1, HyFive Cycle 2
[36] = Patient 6, cycle Day 17, 5FU Cycle 1, HyFive Cycle 2
[37] = Patient 6, cycle Day 19, 5FU Cycle 1, HyFive Cycle 2
[38] = Patient 6, cycle Day 22, 5FU Cycle 1, HyFive Cycle 2
[39] = Patient 6, cycle Day 24, 5FU Cycle 1, HyFive Cycle 2
[40] = Patient 6, cycle Day 26, 5FU Cycle 1, HyFive Cycle 2
[41] = Patient 7, cycle Day 3, HyFive Cycle 1, 5FU Cycle 2
[42] = Patient 7, cycle Day 5, HyFive Cycle 1, 5FU Cycle 2
[43] = Patient 7, cycle Day 8, HyFive Cycle 1, 5FU Cycle 2
[44] = Patient 7, cycle Day 10, HyFive Cycle 1, 5FU Cycle 2
[45] = Patient 7, cycle Day 15, HyFive Cycle 1, 5FU Cycle 2
[46] = Patient 7, cycle Day 17, HyFive Cycle 1, 5FU Cycle 2
[47] = Patient 7, cycle Day 19, HyFive Cycle 1, 5FU Cycle 2
[48] = Patient 7, cycle Day 22, HyFive Cycle 1, 5FU Cycle 2
[49] = Patient 7, cycle Day 24, HyFive Cycle 1, 5FU Cycle 2
[50] = Patient 7, cycle Day 26, HyFive Cycle 1, 5FU Cycle 2

Experimental: The 5-FU±HA was given by intravenous administration over one hour on a four week cycle. The initial dose of 5-FU in this study was 450 mg/m^2 daily for three days and the dose of HA 500 mg/m^2 with each administration of 5-FU. Dose escalation occurred in two steps to reach the standard dose of 450 mg/m^2 for five consecutive days with each cycle. Therefore, the initial dose level was 450 mg/r^2 daily for three days, the next 450 mg/m^2 for four days and the final 450 mg/m^2 daily for five days.

O=c1[nH]cc(F)c(=O)[nH]1 [5FU, 5-fluorouracil]
Neutrophil Count [1]: 7.6
Neutrophil Count as % Day 1 [1]: 82%
Neutrophil Count [2]: 8.4
Neutrophil Count as % Day 1 [2]: 90%
Neutrophil Count [3]: 8.3
Neutrophil Count as % Day 1 [3]: 89%
Neutrophil Count [4]: 6.8
Neutrophil Count as % Day 1 [4]: 73%
Neutrophil Count [5]: 7
Neutrophil Count as % Day 1 [5]: 75%
Neutrophil Count [6]: 7.3
Neutrophil Count as % Day 1 [6]: 78%
Neutrophil Count [7]: 8.4
Neutrophil Count as % Day 1 [7]: 90%
Neutrophil Count [8]: 8.2
Neutrophil Count as % Day 1 [8]: 88%
Neutrophil Count [9]: 7.8
Neutrophil Count as % Day 1 [9]: 84%
Neutrophil Count [10]: 8.7
Neutrophil Count as % Day 1 [10]: 94%
Neutrophil Count (Patient 2 L-F (Day 3 Tx), cycle Day 1, 5FU Cycle 1, HyFive Cycle 2): 9.3
Neutrophil Count [11]: 4.4
Neutrophil Count as % Day 1 [11]: 86%
Neutrophil Count [12]: 4.4
Neutrophil Count as % Day 1 [12]: 86%
Neutrophil Count [13]: 5
Neutrophil Count as % Day 1 [13]: 98%
Neutrophil Count [14]: 10.3
Neutrophil Count as % Day 1 [14]: 202%
Neutrophil Count [15]: 6.9
Neutrophil Count as % Day 1 [15]: 135%
Neutrophil Count [16]: 6.7
Neutrophil Count as % Day 1 [16]: 131%
Neutrophil Count [17]: 7.5
Neutrophil Count as % Day 1 [17]: 147%
Neutrophil Count [18]: 6.5
Neutrophil Count as % Day 1 [18]: 127%
Neutrophil Count [19]: 6.1
Neutrophil Count as % Day 1 [19]: 120%
Neutrophil Count [20]: 7.9
Neutrophil Count as % Day 1 [20]: 155%
Neutrophil Count [21]: 5.3
Neutrophil Count as % Day 1 [21]: 104%
Neutrophil Count (Patient 4 C-X (4 Day Tx), cycle Day 1, HyFive Cycle 1, 5FU Cycle 2): 5.1
Neutrophil Count [22]: 4.5
Neutrophil Count as % Day 1 [22]: 107%
Neutrophil Count [23]: 4.1
Neutrophil Count as % Day 1 [23]: 98%
Neutrophil Count [24]: 4.3
Neutrophil Count as % Day 1 [24]: 102%
Neutrophil Count [25]: 3.7
Neutrophil Count as % Day 1 [25]: 88%
Neutrophil Count [26]: 3.3
Neutrophil Count as % Day 1 [26]: 79%
Neutrophil Count [27]: 4.3
Neutrophil Count as % Day 1 [27]: 102%
Neutrophil Count [28]: 4.3
Neutrophil Count as % Day 1 [28]: 102%
Neutrophil Count [29]: 4
Neutrophil Count as % Day 1 [29]: 95%
Neutrophil Count [30]: 4.5
Neutrophil Count as % Day 1 [30]: 107%
Neutrophil Count (Patient 5 J-M (5 Day Tx), cycle Day 1, 5FU Cycle 1, HyFive Cycle 2): 4.2
Neutrophil Count [31]: 4.3
Neutrophil Count as % Day 1 [31]: 81%
Neutrophil Count [32]: 4.5
Neutrophil Count as % Day 1 [32]: 85%
Neutrophil Count [33]: 6.6
Neutrophil Count as % Day 1 [33]: 125%
Neutrophil Count [34]: 4.5
Neutrophil Count as % Day 1 [34]: 85%
Neutrophil Count [35]: 4.2
Neutrophil Count as % Day 1 [35]: 79%
Neutrophil Count [36]: 5.5
Neutrophil Count as % Day 1 [36]: 104%
Neutrophil Count [37]: 5.3
Neutrophil Count as % Day 1 [37]: 100%
Neutrophil Count [38]: 5.7
Neutrophil Count as % Day 1 [38]: 108%
Neutrophil Count [39]: 5.4
Neutrophil Count as % Day 1 [39]: 102%
Neutrophil Count [40]: 5
Neutrophil Count as % Day 1 [40]: 94%
Neutrophil Count (Patient 6 J-B (5 Day Tx), cycle Day 1, 5FU Cycle 1, HyFive Cycle 2): 5.3
Neutrophil Count [41]: 2.3
Neutrophil Count as % Day 1 [41]: 77%
Neutrophil Count [42]: 2.8
Neutrophil Count as % Day 1 [42]: 93%
Neutrophil Count [43]: 3.2
Neutrophil Count as % Day 1 [43]: 107%
Neutrophil Count [44]: 2.5
Neutrophil Count as % Day 1 [44]: 83%
Neutrophil Count [45]: 2.7
Neutrophil Count as % Day 1 [45]: 90%
Neutrophil Count [46]: 2.5
Neutrophil Count as % Day 1 [46]: 83%
Neutrophil Count [47]: 3
Neutrophil Count as % Day 1 [47]: 100%
Neutrophil Count [48]: 3.4
Neutrophil Count as % Day 1 [48]: 113%
Neutrophil Count [49]: 3.1
Neutrophil Count as % Day 1 [49]: 103%
Neutrophil Count [50]: 3.5
Neutrophil Count as % Day 1 [50]: 117%
Neutrophil Count (Patient 7 V-D (5 Day Tx), cycle Day 1, HyFive Cycle 1, 5FU Cycle 2): 3
